Laboratory results: US20090215778A1, “Alpha-substituted Arylmethyl Piperazine Pyrazolo [1,5-alpha]Pyrimidine Amide Derivatives” (priority 2007, published 2009)
Read-outs that look alike come from different tables or passages of the source.

Legend:
[1] = target: T1, HIV Env six-helix bundle (6HB) structure (Human immunodeficiency virus type 1 group M subtype B, UniProt P04579); assay: Six-helix bundle (6HB) assay; type: cell-based, HIV-1 (strain RF)
T1 construct: H9 cells chronically infected with HIV-1 (H9/HIV-1RF); endogenous in cells; host or cells: H9 cells chronically infected with HIV-1 strain RF (Env is made from the virus in the infected cells, not by transfection)
T1 sequence (P04579 32-519): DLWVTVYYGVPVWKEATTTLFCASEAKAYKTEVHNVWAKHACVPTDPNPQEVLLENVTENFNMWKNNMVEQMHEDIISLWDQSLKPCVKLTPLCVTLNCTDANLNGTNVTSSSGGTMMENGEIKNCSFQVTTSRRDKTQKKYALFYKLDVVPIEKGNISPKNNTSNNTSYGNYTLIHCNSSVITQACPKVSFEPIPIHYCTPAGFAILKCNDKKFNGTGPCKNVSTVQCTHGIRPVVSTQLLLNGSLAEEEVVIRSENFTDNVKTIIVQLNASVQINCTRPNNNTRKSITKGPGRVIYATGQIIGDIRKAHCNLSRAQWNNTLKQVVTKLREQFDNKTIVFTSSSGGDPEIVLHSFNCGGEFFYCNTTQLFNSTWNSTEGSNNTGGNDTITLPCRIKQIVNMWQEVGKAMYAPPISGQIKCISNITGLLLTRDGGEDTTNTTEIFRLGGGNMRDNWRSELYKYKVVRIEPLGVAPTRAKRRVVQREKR
T1 sequence (P04579 520-865): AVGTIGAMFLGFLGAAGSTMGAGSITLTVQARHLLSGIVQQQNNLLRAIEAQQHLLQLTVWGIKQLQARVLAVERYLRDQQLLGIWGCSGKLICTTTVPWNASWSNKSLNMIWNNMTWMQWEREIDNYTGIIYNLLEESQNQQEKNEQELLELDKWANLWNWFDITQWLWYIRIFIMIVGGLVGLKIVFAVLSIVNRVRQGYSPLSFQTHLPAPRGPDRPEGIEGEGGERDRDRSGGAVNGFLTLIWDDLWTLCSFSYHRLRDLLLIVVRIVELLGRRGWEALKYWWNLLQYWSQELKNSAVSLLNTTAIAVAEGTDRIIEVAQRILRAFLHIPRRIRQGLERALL
Protocol: 3×10^6H9 cells were incubated with 1 mL of HIV-1 (strain RF) supplemented with 40 μg/mL of DEAE-dextran. Virus and cells were incubated together at 37° C. for 2-4 hours with sporadic shaking to resuspend cells. 10 mL of media (RPMI 1640 containing 10% fetal bovine serum and supplemented with 50 μg/mL gentamicin) was then added and the virus-cell coculture was incubated at 37° C. in a humidified 5% CO2 incubator. 3 days post-infection and every 2-3 days thereafter, the infected H9/HIV-1RF cells were centrifuged, the supernatant was removed, and the cells were resuspended at a density of 0.3×10^6 cells/mL in media (RPMI 1640 containing 10% fetal bovine serum and supplemented with 50 μg/mL gentamicin). Chronically infected H9/HIV-1RF cells were used in experiments starting 12-15 days after infection and up to 40 days post-infection.
This assay determines the effect of compounds on conformational changes in HIV envelope glycoprotein (Env) that are required in order for Env to mediate the fusion of the viral and cellular membranes during virus entry and infection. Specifically, this assay measures the effect of compounds on the formation of the HIV Env six-helix bundle (6HB) structure.
H9 cells chronically infected with HIV-1 (H9/HIV-1RF) were resuspended in Stain/Wash Buffer (1% bovine serum albumin, 0.1% sodium azide in phosphate-buffered saline) and aliquoted at 2.5×10^5 cells per well into 96-well V-bottom plates containing various concentrations of test compounds. Cells and compounds were incubated for 30 minutes at 37° C. Recombinant soluble CD4 (sCD4) was then added to a final concentration of 1 μg/mL. Negative control wells contained no sCD4 and no test compound. Positive control wells contained sCD4 but no test compound. The plate was incubated for 1 hour at 37° C. to allow the sCD4 to bind to HIV Env and induce conformational changes in the Env protein. Antibody that is specific for the HIV Env six-helix bundle conformation was then added (1 μL polyclonal rabbit serum per well), and the plate was incubated for an additional 1 hour at 37° C. to permit antibody binding. The cells were then washed once with Stain/Wash Buffer to remove compound and excess antibody. The cells were resuspended in Stain/Wash Buffer containing PE-labeled anti-rabbit secondary antibody (KPL) at 0.25 μg per well. The cells were incubated for 45 min at 4° C. to permit secondary antibody binding. Fluorescence was detected using a BD FACSArray™ bioanalyzer. Compounds that inhibited Env conformational changes were identified as those that decreased primary antibody binding to the six-helix bundle epitope resulting in a decrease in fluorescence signal.

[2] = system: HIV-1, NL4-3 strain; assay: Virus infection assay (virus entry and single-cycle infection); type: cell-based; details: Human immunodeficiency virus 1, NL43, TZM-b1, read-out: Nl4
Protocol: TZM-b1 indicator cells were propagated in Dulbecco's Modified Eagle's Medium (DMEM) containing 10% fetal bovine serum (FBS, heat-inactivated) and supplemented with gentamicin (50 ug/mL).
This assay determines the effects of compounds on virus entry and single-cycle infection of cells. In this assay, virus (HIV-1, NL4-3 strain) is added to indicator cells expressing the CD4 receptor and both the CXCR4 and CCR5 co-receptor. The cells contain both a lac Z and a luciferase reporter gene under control of the viral LTR transcription promoter. The cells and virus are incubated together in the presence of various concentrations of test compounds. Successful infection of the cells by the virus permits activation of the reporter gene by the viral Tat transcription factor. The resulting beta-galactosidase or luciferase activity is quantitated using a chemiluminescent substrate and a luminescent plate reader.
Specifically, one day prior to infection, 1.5×10^4 TZM-b1 indicator cells were added to each well of a 96-well microtiter plate. On the day of the experiment, virus (MOI 0.01) in 50 μL of medium (Dulbecco's Modified Eagle's Medium) supplemented with DEAE-dextran at a final concentration of 80 μg/mL was added to cells along with various concentrations of test compound in 50 μL of Dulbecco's Modified Eagle's Medium. Control wells had virus alone. Following a 4 hr incubation at 37° C., complete media [DMEM supplemented with 10% fetal bovine serum (FBS, heat-inactivated) and gentamicin (50 ug/mL)] was added. One day post-infection the level of virus infection was quantitated by detection of β-galactosidase expression using the Gal-Screen system (Applied Biosystems).

SMILES	IC50 [1] [nM]	IC50 [2] [nM]	IC50 ([1]; read-out: 6HB IC50, H9 cells chronically infected with HIV-1 RF, sCD4-induced six-helix bundle formation) [nM]
COc1ccc(-c2nc3c(C(=O)N4CCN([C@@H](CO)c5ccccc5)C[C@H]4C)cnn3c(N(C)C)c2F)cc1 [methanone, [7-(dimethylamino)-6-fluoro-5-(4-methoxyphenyl)pyrazolo[1,5-α]pyrimidin-3-yl][(2R)-4-[(1R)-2-hydroxy-1-phenylethyl]-2-methyl-1-piperazinyl]-]	< 1000	< 1000	
CNC(=O)C(c1ccccc1)N1CCN(C(=O)c2cnn3c(C(F)(F)F)c(C)c(-c4ccc(OC)cc4)nc23)[C@H](C)C1 (stereo partly drawn) [1-piperazineacetamide, 4-[[5-(4-methoxyphenyl)-6-methyl-7-(trifluoromethyl)pyrazolo[1,5-α]pyrimidin-3-yl]carbonyl]-N,3-dimethyl-α-phenyl-, (3R)-]	< 1000	< 1000	
COc1ccc(-c2nc3c(C(=O)N4CCN(C(CO)c5cccc(NC(N)=O)c5)C[C@H]4C)cnn3c(C(F)(F)F)c2C)cc1 (stereo partly drawn) [urea, N-[3-[2-hydroxy-1-[(3R)-4-[[5-(4-methoxyphenyl)-6-methyl-7-(trifluoromethyl)pyrazolo[1,5-α]pyrimidin-3-yl]carbonyl]-3-methyl-1-piperazinyl]ethyl]phenyl]-]	< 1000	1100 to 10000	
COc1ccc(-c2nc3c(C(=O)N4CCN([C@H](C)c5cc(F)cc(F)c5)C[C@H]4C)cnn3c(C(F)(F)F)c2C)cc1 [methanone, [(2R)-4-[(1R)-1-(3,5-difluorophenyl)ethyl]-2-methyl-1-piperazinyl][5-(4-methoxyphenyl)-6-methyl-7-(trifluoromethyl)pyrazolo[1,5-α]pyrimidin-3-yl]-]	< 1000	< 1000	
COc1ccc(-c2nc3c(C(=O)N4CCN(C(CO)c5cccc(S(C)(=O)=O)c5)C[C@H]4C)cnn3c(C(F)(F)F)c2C)cc1 (stereo partly drawn) [methanone, [(2R)-4-[2-hydroxy-1-[3-(methylsulfonyl)phenyl]ethyl]-2-methyl-1-piperazinyl][5-(4-methoxyphenyl)-6-methyl-7-(trifluoromethyl)pyrazolo[1,5-α]pyrimidin-3-yl]-]	> 10100	> 10100	
COc1ccc(-c2cc(C(F)(F)F)n3ncc(C(=O)N4CCN([C@H](C)c5ccccc5)CC4)c3n2)cc1 [methanone, [5-(4-methoxyphenyl)-7-(trifluoromethyl)pyrazolo[1,5-α]pyrimidin-3-yl][4-(1-phenylethyl)-1-piperazinyl]-]	1100 to 10000		
CCC(c1ccccc1)N1CCN(C(=O)c2cnn3c(C(F)(F)F)cc(-c4ccc(OC)cc4)nc23)CC1 (stereo not shown) [methanone, [5-(4-methoxyphenyl)-7-(trifluoromethyl)pyrazolo[1,5-a]pyrimidin-3-yl][4-(1-phenylpropyl)-1-piperazinyl]-]	1100 to 10000		
COc1ccc(-c2nc3c(C(=O)N4CCN([C@@H](CO)c5ccccc5)C[C@H]4C)cnn3c(C(F)(F)F)c2C)cc1 [drawing 44, methanone, [(2R)-4-[(1R)-2-hydroxy-1-phenylethyl]-2-methyl-1-piperazinyl][5-(4-methoxyphenyl)-6-methyl-7-(trifluoromethyl)pyrazolo[1,5-α]pyrimidin-3-yl]-]			< 1000
COc1ccc(-c2cc(C(F)(F)F)n3ncc(C(=O)N4CCN([C@@H](C)c5ccccc5)CC4)c3n2)cc1 [methanone, [5-(4-methoxyphenyl)-7-(trifluoromethyl)pyrazolo[1,5-α]pyrimidin-3-yl][4-(1-phenylethyl)-1-piperazinyl]-]	1100 to 10000		
COc1ccc(-c2cc(C(F)(F)F)n3ncc(C(=O)N4CCN(C(C)c5ccccc5)CC4)c3n2)cc1 (stereo not drawn) [methanone, [5-(4-methoxyphenyl)-7-(trifluoromethyl)pyrazolo[1,5-α]pyrimidin-3-yl][4-(1-phenylethyl)-1-piperazinyl]-]	1100 to 10000		
COc1ccc(-c2cc(C(F)(F)F)n3ncc(C(=O)N4CCN(C(c5ccccc5)C(F)(F)F)CC4)c3n2)cc1 (stereo not drawn) [methanone, [5-(4-methoxyphenyl)-7-(trifluoromethyl)pyrazolo[1,5-α]pyrimidin-3-yl][4-(2,2,2-trifluoro-1-phenylethyl)-1-piperazinyl]-]	< 1000		
